In ChEMBL document CHEMBL5625182, “Synthesis and antibacterial activities of baulamycin A inspired derivatives” (Eur J Med Chem, 2023):
In brackets after ≈: the same amount, converted by molar mass.

Experiments:
Staphylococcus aureus [1] = test: Antibacterial activity against […] Staphylococcus aureus ATCC25923 assessed as inhibition in bacterial growth incubated for 18 hrs by microdilution method; type: functional
[2] = target: T1, L-2,3-diaminopropanoate--citrate ligase (Staphylococcus aureus (strain NCTC 8325 / PS 47)) (UniProt Q2G1M9); test: Inhibition of Staphylococcus aureus SbnE at 50 uM incubated for 1 hr by malachite green staining based microplate reader analysis relative to control
T1 sequence (whole entry): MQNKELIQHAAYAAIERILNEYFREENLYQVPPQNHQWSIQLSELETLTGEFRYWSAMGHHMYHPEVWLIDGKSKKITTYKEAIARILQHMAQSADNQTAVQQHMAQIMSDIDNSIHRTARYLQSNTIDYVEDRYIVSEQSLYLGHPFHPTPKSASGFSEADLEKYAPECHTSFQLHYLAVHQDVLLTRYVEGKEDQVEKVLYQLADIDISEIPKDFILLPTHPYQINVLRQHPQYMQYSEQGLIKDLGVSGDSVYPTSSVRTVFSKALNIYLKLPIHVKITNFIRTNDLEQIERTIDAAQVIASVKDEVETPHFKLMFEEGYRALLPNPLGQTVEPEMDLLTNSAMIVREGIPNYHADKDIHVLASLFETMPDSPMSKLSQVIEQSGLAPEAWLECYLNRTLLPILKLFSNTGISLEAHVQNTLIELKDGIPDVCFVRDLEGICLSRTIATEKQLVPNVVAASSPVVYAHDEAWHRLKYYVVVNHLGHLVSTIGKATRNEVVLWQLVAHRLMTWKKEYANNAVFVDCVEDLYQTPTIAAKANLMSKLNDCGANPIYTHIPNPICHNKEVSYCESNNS

Staphylococcus aureus [3] = test: Antibacterial activity against methicillin resistant Staphylococcus aureus CCARM3167 assessed as inhibition in bacterial growth incubated for 18 hrs by microdilution method; type: functional
[4] = target: T2, L-2,3-diaminopropanoate--citrate ligase (Staphylococcus aureus (strain NCTC 8325 / PS 47), UniProt Q2G1M9); test: Inhibition of Staphylococcus aureus SbnE incubated for 1 hr by malachite green staining based microplate reader analysis
T2 sequence (Q2G1M9 whole entry): T1 sequence (whole entry)

Bacillus cereus = test: Antibacterial activity against Bacillus cereus ATCC27348 assessed as inhibition of bacterial growth incubated for 18 hrs by microdilution method; type: functional
Escherichia coli = test: Antibacterial activity against Escherichia coli MC1061 assessed as inhibition of bacterial growth incubated for 18 hrs by microdilution method; type: functional
Salmonella typhimurium = test: Antibacterial activity against Salmonella typhimurium ATCC14028 assessed as inhibition of bacterial growth incubated for 18 hrs by microdilution method; type: functional, Salmonella enterica subsp. enterica serovar Typhimurium; conditions: Salmonella enterica
[5] = Antibacterial activity against Bacillus subtilis ATCC6633 assessed as inhibition of bacterial growth incubated for 18 hrs by microdilution method; type: functional, Bacillus subtilis […]
Staphylococcus aureus [6] = test: Antibacterial activity against quinolone-resistant Staphylococcus aureus CCARM3505 assessed as inhibition of bacterial growth incubated for 18 hrs by microdilution method; type: functional

Row | Structure (SMILES) | MIC (Staphylococcus aureus [1]) [µg/mL] | inhibition [2] [%] | MIC (Staphylococcus aureus [3]) [µg/mL] | IC50 [4] [µM] | MIC (Bacillus cereus) [µg/mL] | MIC (Escherichia coli) [µg/mL] | MIC (Salmonella typhimurium) [µg/mL] | MIC [5] [µg/mL] | MIC (Staphylococcus aureus [6]) [µg/mL]
1 | CC(C)C[C@H]([C@H](O)CCNc1c(Cl)cccc1Cl)[C@@H](O)c1cc(O)cc(O)c1 | 256 (≈ 598 µM) | 26.8 | 128 (≈ 299 µM) | – | – | – | – | – | –
2 | C[C@@H](COCc1ccccc1)C[C@H](C)C[C@H](C)C#CC(O)CC(O)C[C@@H](O)c1cc(O)cc(O)c1 (single isomer, unassigned) | 64 (≈ 132 µM) | 33.6 | 64 (≈ 132 µM) | – | – | – | – | – | –
3 | CC(C)C[C@@H]([C@H](O)CCCCCCCCCCO)[C@@H](O)c1cc(O)cc(O)c1 | > 256 | 19.8 | > 256 | – | – | – | – | – | –
4 | CC(C)C[C@@H]([C@H](O)CCCC[C@@H](C)C[C@H](C)C[C@@H](C)CO)[C@@H](O)c1cc(O)cc(O)c1 | > 256 | 79.4 | > 256 | 10.5 | – | – | – | – | –
5 | CC(C)C[C@@H]([C@H](O)CCNCc1ccccc1)[C@@H](O)c1cc(O)cc(O)c1 | > 256 | 5.63 | > 256 | – | – | – | – | – | –
6 | CCN(CC[C@@H](O)[C@@H](CC(C)C)[C@@H](O)c1cc(O)cc(O)c1)Cc1ccccc1 | 16 (≈ 39.8 µM) | 5.19 | 16 (≈ 39.8 µM) | – | – | – | – | – | –
7 | Cc1ccc(NCC[C@H](O)[C@@H](CC(C)C)[C@@H](O)c2cc(O)cc(O)c2)c(Cl)c1 | 64 (≈ 157 µM) | 54.8 | 64 (≈ 157 µM) | 18.9 | – | – | – | – | –
8 | CC(C)C[C@H]([C@H](O)CCNc1ccc(O)cc1)[C@@H](O)c1cc(O)cc(O)c1 | 64 (≈ 170 µM) | 8.18 | > 256 | – | – | – | – | – | –
9 | CC(C)C[C@H]([C@H](O)CCNc1ccn(C)n1)[C@@H](O)c1cc(O)cc(O)c1 | 128 (≈ 352 µM) | 48.2 | 128 (≈ 352 µM) | – | – | – | – | – | –
10 | CC(C)C[C@@H]([C@@H](O)C[C@H](O)CC[C@@H](C)C[C@H](C)C[C@@H](C)CO)[C@@H](O)c1cc(O)cc(O)c1 | > 256 | 59.1 | > 256 | 28.5 | – | – | – | – | –
11 | Cc1onc(-c2ccccc2)c1C(=O)N[C@@H]1C(=O)N2[C@@H]1SC(C)(C)[C@@H]2C(=O)O [OXACILLIN] | 0.25 (≈ 0.623 µM) | 10.2 | > 256 | – | 32 (≈ 79.7 µM) | 64 (≈ 159 µM) | 64 (≈ 159 µM) | 8 (≈ 19.9 µM) | > 256
12 | C=CC[C@@H](O)[C@H](CC(C)C)[C@@H](O)c1cc(O)cc(O)c1 | > 256 | 39.5 | > 256 | – | – | – | – | – | –
13 | CC(C)C[C@H]([C@H](O)CCNc1cc(Cl)c(F)cc1[N+](=O)[O-])[C@@H](O)c1cc(O)cc(O)c1 | 128 (≈ 280 µM) | 6.49 | 256 (≈ 560 µM) | – | – | – | – | – | –
14 | CC(C)C[C@H]([C@H](O)CCNc1cccc([N+](=O)[O-])c1)[C@@H](O)c1cc(O)cc(O)c1 | 64 (≈ 158 µM) | 5.19 | 256 (≈ 633 µM) | – | – | – | – | – | –
15 | Cc1ccc([N+](=O)[O-])cc1NCC[C@@H](O)[C@@H](CC(C)C)[C@@H](O)c1cc(O)cc(O)c1 | 32 (≈ 76.5 µM) | 32 | 64 (≈ 153 µM) | – | – | – | – | – | –
16 | CC(C)C[C@@H]([C@H](O)C[C@H](O)CCCCCCCCO)[C@@H](O)c1cc(O)cc(O)c1 | > 256 | 38.4 | > 256 | – | – | – | – | – | –
17 | CC(C)C[C@H]([C@H](O)CCNCc1cccc([N+](=O)[O-])c1)[C@@H](O)c1cc(O)cc(O)c1 | > 256 | 50.8 | > 256 | 92.5 | – | – | – | – | –

Row | Structure (SMILES) | MIC (Staphylococcus aureus [1]) [µg/mL] | inhibition [2] [%] | MIC (Staphylococcus aureus [3]) [µg/mL] | IC50 [4] [µM] | MIC (Bacillus cereus) [µg/mL] | MIC (Escherichia coli) [µg/mL] | MIC (Salmonella typhimurium) [µg/mL] | MIC [5] [µg/mL] | MIC (Staphylococcus aureus [6]) [µg/mL]
18 | CC(C)C[C@H]([C@H](O)CCO)[C@@H](O)c1cc(O)cc(O)c1 | > 256 | 28.3 | > 256 | – | – | – | – | – | –
19 | CC(C)C[C@@H]([C@H](O)C[C@H](O)C#C[C@@H](C)C[C@H](C)C[C@@H](C)COCc1ccccc1)[C@@H](O)c1cc(O)cc(O)c1 | 64 (≈ 118 µM) | 76.8 | 64 (≈ 118 µM) | 11.8 | – | – | – | – | –
20 | CCn1cc(C(=O)O)c(=O)c2cc(F)c(N3CCNCC3)cc21 [NORFLOXACIN] | > 256 | 16.8 | 4 (≈ 12.5 µM) | – | 2 (≈ 6.26 µM) | 2 (≈ 6.26 µM) | 2 (≈ 6.26 µM) | 4 (≈ 12.5 µM) | > 256
21 | CCC(=O)[C@@H](C)C[C@@H](C)C[C@@H](C)CCCC[C@@H](O)[C@@H](CC(C)C)[C@@H](O)c1cc(O)cc(O)c1 | 8 (≈ 17.2 µM) | 81.5 | 4 (≈ 8.61 µM) | 16.4 | – | – | – | – | –
22 | CC(C)C[C@H]([C@H](O)CCNc1ccccc1)[C@@H](O)c1cc(O)cc(O)c1 | 4 (≈ 11.1 µM) | 75.1 | 8 (≈ 22.3 µM) | 18.2 | – | – | – | – | –
23 | CCC[C@@H](O)[C@@H](CC(C)C)[C@@H](O)c1cc(O)cc(O)c1 | > 256 | 25.6 | > 256 | – | – | – | – | – | –
24 | C[C@@H](CO)C[C@H](C)C[C@H](C)C#CC(O)CC(O)C[C@@H](O)c1cc(O)cc(O)c1 (single isomer, unassigned) | 128 (≈ 324 µM) | 6.92 | 128 (≈ 324 µM) | – | – | – | – | – | –
25 | C[C@@H](COCc1ccccc1)C[C@H](C)C[C@H](C)C#CC(O)c1cc(O)cc(O)c1 (stereo partly drawn) | 2 (≈ 5.04 µM) | 34.8 | 4 (≈ 10.1 µM) | – | – | – | – | – | –
26 | CC(C)C[C@@H]([C@H](O)C[C@H](O)CC[C@@H](C)C[C@H](C)C[C@@H](C)CO)[C@@H](O)c1cc(O)cc(O)c1 | > 256 | 31.1 | > 256 | – | – | – | – | – | –
27 | CC(C)C[C@@H]([C@H](O)C[C@H](O)C#CCCCCCCOCc1ccccc1)[C@@H](O)c1cc(O)cc(O)c1 | 128 (≈ 257 µM) | 97.1 | 128 (≈ 257 µM) | 7.16 | – | – | – | – | –
28 | CC(C)C[C@H]([C@H](O)CC(O)C#C[C@@H](C)C[C@@H](C)C[C@@H](C)CO)[C@@H](O)c1cc(O)cc(O)c1 (stereo partly drawn) | 64 (≈ 142 µM) | 74.7 | 64 (≈ 142 µM) | 6.76 | – | – | – | – | –
29 | CC(C)C[C@H]([C@H](O)CCNc1ccc(Cl)cc1Cl)[C@@H](O)c1cc(O)cc(O)c1 | 8 (≈ 18.7 µM) | 41.8 | 4 (≈ 9.34 µM) | – | – | – | – | – | –
30 | CC(C)C[C@H]([C@H](O)CCNc1ccccc1O)[C@@H](O)c1cc(O)cc(O)c1 | 64 (≈ 170 µM) | 4.87 | 64 (≈ 170 µM) | – | – | – | – | – | –
31 | CC(C)C[C@H]([C@H](O)CCNCc1ccco1)[C@@H](O)c1cc(O)cc(O)c1 | > 256 | 34.5 | > 256 | – | – | – | – | – | –
32 | C=CC[C@@H](O)[C@@H](CC(C)C)[C@@H](O)c1cc(O)cc(O)c1 | > 256 | 96.8 | > 256 | 8.2 | – | – | – | – | –
33 | CC(C)C[C@H]([C@H](O)CCNc1ccccn1)[C@@H](O)c1cc(O)cc(O)c1 | > 256 | 36.4 | > 256 | – | – | – | – | – | –
34 | CCC(O)[C@H](C)C[C@H](C)C[C@H](C)CC[C@@H](O)C[C@@H](O)[C@@H](CC(C)C)[C@@H](O)c1cc(O)cc(O)c1 (stereo partly drawn) | 32 (≈ 66.3 µM) | 58.7 | 32 (≈ 66.3 µM) | 17.1 | – | – | – | – | –
